Experiment: Solubility of rapamycin
Assay type: physicochemical

Structure (SMILES): CO[C@H]1C[C@@H]2CC[C@@H](C)[C@@](O)(O2)C(=O)C(=O)N2CCCC[C@H]2C(=O)O[C@H]([C@H](C)C[C@@H]2CC[C@@H](O)[C@H](OC)C2)CC(=O)[C@H](C)/C=C(\C)[C@@H](O)[C@@H](OC)C(=O)[C@H](C)C[C@H](C)/C=C/C=C/C=C/1C [Rapamycin]
- solubility in aqueous solutions (aqueous solutions): virtually insoluble
- solubility in surfactants (most surfactants, including the nonionic surfactants): insoluble
- solubility in polyoxyethylated glycerin hydroxy fatty acids (rapamycin per se, polyoxyethylated glycerin hydroxy fatty acids): does not readily go into solution

From patent EP0041795A2, “Injectable composition of rapamycin” (AYERST, MCKENNA AND HARRISON INC., priority 1980, dated 1981)
